# Earlier results as cited in patent US20220354121A1, “EXTERNALLY HEATED GEL REPELLENT” (Lamplight Farms Incorporated, priority 2021, published 2022).
# Tested on: insect
# Conditions: release into local atmosphere
smiles,measurement,value
C/C=C/C1C(C(=O)OCc2c(F)c(F)c(COC)c(F)c2F)C1(C)C (stereo not shown) [metofluthrin],metofluthrin release known to be sufficient for local repellency purposes,7 to 12 mg/h
